Test results: US20260347310A1, “PHENALKYLAMINES AND METHODS OF MAKING AND USING THE SAME” (GILGAMESH PHARMACEUTICALS, INC., priority 2022, published 2026)
Like-named read-outs stand apart in the source and are kept apart here.

Key:
[1] = Pharmacokinetics in plasma of rats after oral and intravenous dosing; oral bioavailability; format: in vivo, Sprague Dawley rats; settings: rat plasma, racemate, 10% captisol
Protocol: The pharmacokinetics of disclosed compounds were determined in the plasma of rats after oral and intravenous dosing, with the results presented in Table 13.
Animals. Male Sprague Dawley rats were used in these studies. Animals were randomly assigned to treatment groups and were fasted overnight before oral dosing.
Drugs. The test compound was dissolved in 10% captisol (1) or 10% DMSO and 90% normal saline (2a) and administered intravenously (iv) at 2 mg/kg (1) or 1 mg/kg (2a) or orally (po) at 10 mg/kg (1) or 1 mg/kg (2a), calculated based on freebase, and at a volume of 10 mL/kg body weight for oral administration and 5 mL/kg for IV administration. The compounds were tested as the racemates.
Sample Collection and Bioanalysis. Blood samples were collected through the external jugular vein (via cannulation) at 0.083, 0.25, 0.5, 1, 2, 4, 8, and 24 h post-dose (total 8 time points/rat, 4 rats per administration route). At each time point, ~0.2 mL of blood was withdrawn and transferred into a pre-labeled 0.5-mL micro centrifuge tube containing 4 μL of 200 mM K2EDTA solution as anticoagulant and mixed gently by inverting the tube to facilitate mixing of anticoagulant with the blood. Blood samples were kept on ice until centrifugation. The collected blood samples were centrifuged at 4,000 rpm for 10 min at 4° C. Plasma samples were separated after centrifugation, transferred into pre-labeled tubes, and stored at −70° C. until bioanalysis. For bioanalysis, a 200-μL aliquot of internal standard prepared in acetonitrile (cetirizine, 50 ng/mL) was added (except for blank, where 200 μL of acetonitrile was added) to a 96-well Solvinert filter plate followed by 5 μL of a study plasma sample or spiked calibration standard. The filter plate was then centrifuged for 5 minutes at a speed of 2,500 rpm at 4° C. with a 96-well sample collection plate. Following centrifugation, collected samples were analyzed using a fit-for-purpose LC-MS/MS method, with authentic samples of the analyte used for calibration and identification.
Data Analysis. Pharmacokinetic parameters were estimated using the non-compartmental analysis tool of Phoenix® WinNonlin software (Ver 8.1). The drug concentrations of samples below the lower limit of quantitation (LLOQ) were designated as zero.

5-HT2A receptor [2] = biological target: T1, 5-HT2A receptor (Homo sapiens, UniProt P28223); experiment: FLIPR Ca2+ flux functional agonist assay at 5-HT2A; format: cell-based; set-up: expressed in transfected cells; host or cells: HEK293
Protocol: Disclosed compounds were tested for agonist activity at several serotonin receptor subtypes (5-HT2A, […], and 5-HT2C) using Ca^2+ flux functional assays, with the results summarized in Table 9.
(§1) Test Compounds. Compounds were prepared as described above.
Functional Assays at 5-HT2A and 5-HT2B. Agonist activity at 5-HT2A and 5-HT2B receptors was determined using a FLIPR Ca^2+ flux assay at WuXi AppTec (Hong Kong) Limited according to their standard protocols. Briefly, stably transfected cells expressing the receptor of interest (HEK293 for both 5-HT2A and 5-HT2B) were grown and plated in a 384-well plate and incubated at 37° C. and 5% CO2 overnight. A solution of 250 mM probenecid in 1 mL FLIPR assay buffer was prepared fresh. This was combined with a fluorescent dye (Fluo-4 Direct™) to make a final assay concentration of 2.5 mM. Compounds were diluted 1:3.16 for 10 points and 750 nL was added to a 384 well compound plate using ECHO along with 30 μL assay buffer. The fluorescent dye was then added to the assay plate along with assay buffer to a final volume of 40 μL. The cell plate was incubated for 50 min at 37° C. and 5% CO2 and placed into the FLIPR Tetra along with the compound plate. 10 μL of references and compounds were then transferred from the compound plate into the cell plate and the fluorescent signal was read.

[3] = Metabolic stability in human liver microsomes (HLM); format: in vitro ADME; settings: for stability in HLM (in words): 1 μM, 0.50 mg protein/mL, 1 mM NADPH, 37 °C, 60 min; for half-life at 1 µM / microsomal CLint at 1 µM: human liver microsomes 0.50 mg/mL, NADPH 1 mM, test compound 1 μM, 37° C., pH 7.4, 60 min
Protocol: as §1
(§2) HLM Stability. Pooled HLM from adult male and female donors (Corning 452117) were used. Microsomal incubations were carried out in multi-well plates. Liver microsomal incubation medium consisted of PBS (100 mM, pH 7.4), MgCl2 (1 mM), and NADPH (1 mM), with 0.50 mg of liver microsomal protein per mL. Control incubations were performed by replacing the NADPH-cofactor system with PBS. Test compounds (1 μM, final solvent concentration 1.0%) were incubated with microsomes at 37° C. with constant shaking. Six time points over 60 minutes were analyzed, with 60 μL aliquots of the reaction mixture being drawn at each time point. The reaction aliquots were stopped by adding 180 μL of cold (4° C.) acetonitrile containing 200 ng/mL tolbutamide and 200 ng/mL labetalol as internal standards (IS), followed by shaking for 10 minutes, and then protein sedimentation by centrifugation at 4,000 rpm for 20 minutes at 4° C. Supernatant samples (80 μL) were diluted with water (240 μL) and analyzed for parent compound remaining using a fit-for-purpose liquid chromatography-tandem mass spectrometry (LC-MS/MS) method.
(§3) Data Analysis. The elimination constant (kel), half-life (t1/2), and intrinsic clearance (CLint) were determined in a plot of […] versus time, using linear regression analysis.

[4] = Metabolic stability in dog liver microsomes (DLM); format: in vitro ADME, Beagle dogs; settings: for stability in DLM (in words): 1 μM, 0.50 mg protein/mL, 1 mM NADPH, 37 °C, 60 min; for half-life at 1 µM / microsomal CLint at 1 µM: dog liver microsomes 0.50 mg/mL, NADPH 1 mM, test compound 1 μM, 37° C., pH 7.4, 60 min
Protocol: as §1
as §2, with “DLM” for “HLM”, “Beagle dogs (Xenotech D1000)” for “and female donors (Corning 452117)”
as §3

5-HT2A receptor [5] = biological target: T1, 5-HT2A receptor; experiment: Radioligand binding at 5-HT2A ([3H]ketanserin); set-up: expressed in transfected cells
Protocol: The binding affinities of disclosed compounds at the ketanserin binding site of the 5-HT2A receptor, the LSD binding site of the 5-HT2B receptor, and the mesulergine binding site of the 5-HT2C receptor were determined in radioligand binding experiments.
Method. The affinity of the test compounds for 5-HT2A, 5-HT2B, and 5-HT2C receptors was determined in radioligand binding experiments with [^3H]ketanserin, [^3H]LSD, and [^3H]mesulergine, respectively, by WuXi AppTec (Hong Kong) Limited, using methods adapted from the literature and under conditions described in Table 7.

T1 sequence (P28223 whole entry): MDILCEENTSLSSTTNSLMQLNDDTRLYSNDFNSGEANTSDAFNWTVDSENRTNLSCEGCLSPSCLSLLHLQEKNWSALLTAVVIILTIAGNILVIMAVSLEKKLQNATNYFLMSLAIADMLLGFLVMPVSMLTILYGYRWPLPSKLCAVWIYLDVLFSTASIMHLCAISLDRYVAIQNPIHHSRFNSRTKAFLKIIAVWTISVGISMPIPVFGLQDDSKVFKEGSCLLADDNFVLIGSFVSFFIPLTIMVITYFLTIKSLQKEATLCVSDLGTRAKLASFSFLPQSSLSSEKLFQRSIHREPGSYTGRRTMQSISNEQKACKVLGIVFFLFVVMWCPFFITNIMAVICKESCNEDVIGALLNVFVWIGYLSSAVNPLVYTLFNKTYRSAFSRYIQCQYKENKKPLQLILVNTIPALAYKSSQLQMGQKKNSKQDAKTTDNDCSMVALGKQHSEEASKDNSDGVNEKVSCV

| SMILES | bioavailability ([1]; IV 2 mg/kg and PO 10 mg/kg, read-out: F (absolute oral bioavailability)) | C0 ([1]; IV 2 mg/kg) | AUC(0-t) ([1]; IV 2 mg/kg, read-out: AUC0-last (iv)) | half-life ([1]; IV 2 mg/kg, read-out: t1/2 (iv) (converted)) | Cmax ([1]; PO 10 mg/kg, fasted) | AUC(0-t) ([1]; PO 10 mg/kg, fasted, read-out: AUC0-last (po)) | half-life ([1]; PO 10 mg/kg, fasted, read-out: t1/2 (po) (converted)) | EC50 (5-HT2A receptor [2]) | agonist activity at 5-HT2A (in words) (5-HT2A receptor [2]; Ca2+ flux, potency or efficacy) | Emax (5-HT2A receptor [2]; HEK293, read-out: 5-HT2A % Act @ Max Dose) | stability in HLM (in words) [3] | half-life at 1 µM [3] | microsomal CLint at 1 µM [3] | stability in DLM (in words) [4] | half-life at 1 µM [4] | microsomal CLint at 1 µM [4] | Ki (5-HT2A receptor [5]) | binding at 5-HT2A receptors (in words) (5-HT2A receptor [5]; [3H]ketanserin) |
| --- | --- | --- | --- | --- | --- | --- | --- | --- | --- | --- | --- | --- | --- | --- | --- | --- | --- | --- |
| CCCCCCc1cc(OC)c(CC(N)CC)cc1OC (racemic) [Compound 1, 1-(4-hexyl-2,5-dimethoxyphenyl)butan-2-amine] | 8% | 389 ng/mL | 354 ng·h/mL | 2.16 h | 35.1 ng/mL | 138 ng·h/mL | 2.63 h | – | – | – | – | – | – | – | – | – | – | – |
| CCC(N)Cc1cc(OC)c(CCCCC(C)(F)F)cc1OC (stereo not drawn) [Compound 2b, 1-(4-(5,5-difluorohexyl)-2,5-dimethoxyphenyl)butan-2-amine] | – | – | – | – | – | – | – | 5060 nM | substantially less potent than 1R and 1S in the 5-HT2A FLIPR assay | 71.3% | significantly higher stability compared to 1R and 1S | > 2.42 h | < 9.6 µL/min/mg | significantly higher stability compared to 1R and 1S | 1.19 h | 19.4 µL/min/mg | 9.52 nM | potent ligands for 5-HT2A |
| [2H]C([2H])([2H])CCCCCc1cc(OC)c(CC(N)CC)cc1OC (stereo not drawn) [Compound 3a, 1-(4-(hexyl-6,6,6-d3)-2,5-dimethoxyphenyl)butan-2-amine] | – | – | – | – | – | – | – | – | – | – | intermediate stability | 0.517 h | 44.7 µL/min/mg | modestly greater stability than 1R or 1S | 0.557 h | 41.5 µL/min/mg | – | – |
